Columns and labels:
[1] = in vivo; conditions: rat, plasma, po
[2] = GLP non-clinical safety testing; cited from earlier work
[3] = test system: Ovary cultured human cancer cells; conditions: second panel, mean among sensitive cell lines, read-out: IC50 mean +/− SD; cited from earlier work
[4] = target: human NMT2 (Homo sapiens, UniProt O60551); experiment: Inhibition of N-myristoyltransferase NMT2; type: biochemical
human NMT2, sequence (O60551 whole entry): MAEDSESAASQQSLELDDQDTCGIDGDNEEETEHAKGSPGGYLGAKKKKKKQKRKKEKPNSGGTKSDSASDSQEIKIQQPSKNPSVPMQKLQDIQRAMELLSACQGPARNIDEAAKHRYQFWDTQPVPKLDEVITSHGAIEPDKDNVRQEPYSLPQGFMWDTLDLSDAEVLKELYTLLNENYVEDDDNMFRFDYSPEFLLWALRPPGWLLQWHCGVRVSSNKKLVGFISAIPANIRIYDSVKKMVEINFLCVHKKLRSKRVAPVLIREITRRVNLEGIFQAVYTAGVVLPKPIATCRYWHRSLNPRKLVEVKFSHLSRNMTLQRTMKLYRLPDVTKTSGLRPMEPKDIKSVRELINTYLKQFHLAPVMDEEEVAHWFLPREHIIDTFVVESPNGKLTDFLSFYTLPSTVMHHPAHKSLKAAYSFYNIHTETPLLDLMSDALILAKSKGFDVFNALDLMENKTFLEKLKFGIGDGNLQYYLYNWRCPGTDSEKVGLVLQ

For `Cc1c(NS(=O)(=O)c2c(Cl)cc(-c3ccnc(N4CCNCC4)c3)cc2Cl)c(CC(C)C)nn1C` [PCLX-001, 2,6-dichloro-N-(3-isobutyl-1,5-dimethyl-1H-pyrazol-4-yl)-4-(2-(piperazin-1-yl)pyridin-4-yl)benzene sulfonamide], the Cmax [1] is given as 3110 ng/mL, the half-life [1] is given as 1 h and the dose limiting toxicity [2] is given as “diarrhea was dose limiting”. For the same compound, the IC50 [3] was 76.7 ± 7.6 nM and the “inhibition of human NMT2” value [4] was “potent”.
